Measured values from patent publication US6482800B1, “Methods to stimulate angiogenesis” (The University of Southern California, priority 1998, dated 2002).
“Also recorded” adds a separate entry of the source. Square brackets hold non-standard residues; d marks the D form. Ends that are not written are not given here. Nle = CCCC[C@H](N)C(=O)O

Assays:
[1] = system: Ischemic Myocardial Tissue; assay: Formation of collateral circulation in ischemic myocardial tissue after coronary artery ligation; type: in vivo, Rabbits; conditions: rabbit, peptide 1 mg/ml; for Number of blood vessels present in the infarct site, Mean ± SEM: left circumflex and left anterior descending arteries ligated, 0.05 ml in Hydron vehicle injected in cardiac muscle, necropsy from day 7, microscopic examination; for Vascularization of the infarct site: 0.05 ml injected distal to coronary occlusion, versus vehicle
Procedure: Rabbits underwent a surgical procedure under intramuscular anesthesia (Ketamine and Rompum) after shaving with animal clippers and preparation with betadine and isopropyl alcohol. A midline sternotomy was performed. After exposure of the pericardial sac, a three centimeter incision was made into the pericardium. After visualization of the epicardial surface, two coronary arteries, the left circumflex and the left anterior descending arteries, were exposed and ligated by 4-0 Vicryl suture. Vehicle (10% Hydron, 60% ethanol and 1% polyethylene glycol), with or without peptide (1 mg/ml, 0.05 ml) was injected in the cardiac muscle distal to the site of coronary occlusion. The sternum was then closed with 2-0 Silk. The muscle and skin were then closed with 3-0 Dexon II suture. Starting at 7 days after surgery, the animals were euthanized and necropsies performed. The number of blood vessels present in the infarct site was assessed grossly and by microscopic evaluation.

[2] = target: T1, AT2 receptor (Homo sapiens, UniProt P50052); conditions: cited from earlier work
T1 sequence (P50052 1-363): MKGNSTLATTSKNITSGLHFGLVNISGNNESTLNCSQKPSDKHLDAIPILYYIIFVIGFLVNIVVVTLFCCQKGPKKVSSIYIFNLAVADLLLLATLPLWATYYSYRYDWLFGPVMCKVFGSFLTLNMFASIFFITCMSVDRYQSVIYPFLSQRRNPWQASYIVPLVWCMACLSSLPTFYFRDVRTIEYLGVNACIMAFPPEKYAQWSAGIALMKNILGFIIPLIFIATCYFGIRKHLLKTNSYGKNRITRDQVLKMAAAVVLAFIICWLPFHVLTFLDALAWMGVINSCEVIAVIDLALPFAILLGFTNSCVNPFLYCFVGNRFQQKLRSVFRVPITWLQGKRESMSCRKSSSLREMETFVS

[3] = system: rat kidneys; conditions: cited from earlier work
[4] = system: Living skin equivalent (LSE) graft tissue; assay: Engraftment of living skin equivalent (LSE) on full thickness skin excision; type: in vivo, Swiss nude mice; conditions: LSE soaked 15 minutes in 1.0 mg/ml peptide; day 7; compared to untreated LSE
Procedure: Male Swiss nude mice (22-24 g) were anesthetized with an intramuscular injection of Ketaset/Rompun and a 1 cm×1 cm full thickness skin excision was made on their dorsal surface. Living skin equivalent (LSE) was placed in the defect and trimmed with microscissors so that no gap was observed between the edges of the mouse skin and the LSE. The mice were divided into 6 groups based upon the peptide tested: (0 [LRS-Dextrose], or 1.0 mg/ml AII or AII analogues, AII (1-7) [SEQ ID NO:4]; Ala4AIII [SEQ ID NO:18]; Pro3AII [SEQ ID NO:31]; and Ile8AII [SEQ ID NO: 42]; see Table 3) and the LSE was soaked for 15 minutes in lactated Ringers solution with 5% dextrose with or without peptides prior to placement. After the graft was placed, the dorsal surface of the mouse was covered by petrolatum-embedded gauze followed by two adhesive bandages. After recovery from anesthesia, the mice were returned to their individual cages and observed daily until euthanasia. The mice received intramuscular analgesia for the first three days after surgery. No mouse lost its bandages prior to necropsy or bandage removal on day 7. The mice were necropsied on day 7. At necropsy, the degree of graft take and the appearance of the grafted tissue was noted prior to placement of the biopsy in 10% buffered formalin in preparation for paraffin embedding and section for hematoxylin and eosin staining.

[5] = system: chick chorioallantoic membrane; conditions: chick chorioallantoic membrane model; cited from earlier work
[6] = system: rabbit corneal eye; conditions: rabbit corneal eye model; cited from earlier work
[7] = system: burn areas; assay: Partial thickness thermal injury model; type: in vivo, Hartley guinea pigs; conditions: 1 mg/ml peptide in 10% low-viscosity CMC, topical on burn; day 7
[8] = Unspecified test of effectiveness of AII fragments

Substance: Asp-Arg-Val-Tyr-Ile-His-Pro (DRVYIHP) [AII(1-7)]
- Number of blood vessels present in the infarct site, Mean ± SEM [1]: 80.6 ± 4.5
- Vascularization of the infarct site [1]: increase vascularization

Substance: Asp-Arg-Val-Tyr-Ile-His-Pro-Phe (DRVYIHPF) [AII]
- Affinity for AT2 relative to AT1 [2]: 100 times

Substance: Asp-Arg-Val-Tyr-Ile-His-Pro-Phe [AII]
- Activation of collateral circulation via preformed blood vessels [3]: activate collateral circulation
- Number of blood vessels present in the infarct site, Mean ± SEM [1]: 29.8 ± 12.3
- Vascularization of the infarct site [1]: increase vascularization
- Angiogenesis (vascular channel formation) in graft tissue [4]: increased
- Endothelial cell production in graft tissue [4]: increased
- Angiogenic activity [5]: angiogenic
- Angiogenic activity [6]: angiogenic
- Blood flow response (angiogenesis) after thermal injury, compared to control [7]: increased blood flow response compared to control

Substance: DR(nor)YIHP (DR[Nle]YIHP) [Analogue 9GD]
- Number of blood vessels present in the infarct site, Mean ± SEM [1]: 21.2 ± 2.8
- Vascularization of the infarct site [1]: increase vascularization

Substance: DRKYIHP [Analogue 5GD]
- Number of blood vessels present in the infarct site, Mean ± SEM [1]: 24.55 ± 2.34
- Vascularization of the infarct site [1]: increase vascularization

Substance: DRPYIHP [Analogue 2GD]
- Number of blood vessels present in the infarct site, Mean ± SEM [1]: 31.2 ± 5.62
- Vascularization of the infarct site [1]: increase vascularization

Substance: DRVAIHP [Analogue 1GD]
- Number of blood vessels present in the infarct site, Mean ± SEM [1]: 23.4 ± 8.6
- Vascularization of the infarct site [1]: increase vascularization

Substance: His-Pro-Phe (HPF) [AII(6-8)]
- Effectiveness (test not specified) [8]: not to be effective

Substance: Tyr-Ile-His-Pro-Phe (YIHPF) [AII(4-8)]
- Effectiveness (test not specified) [8]: not to be effective; also recorded: ineffective
